“Also recorded” adds a separate entry of the source.
Key:
Assay type in all cases: cell-based, Human
[1] = system: COL1A1; assay: mRNA expression of tendon healing factors in hADSC: COL1A1; details: hADSC at 1×10^5 cell/ml, 2.5 μg/ml, 96 or 168 hours
Procedure: (§1) 20 ml of 1.0×10^5 or 0.2×10^5 cells/ml hADSCs in DMEM medium (10% fetal bovine serum, 1% L-glutamine, 1% non-essential amino acid (NEAA), and 1% sodium pyruvate) was placed on a 15-cm dish, mixed with 2.5 μg/ml butylidenephthalide, and then incubated at 37° C. in a 5% CO2 incubator for 96 hours. After the medium was removed and replaced with fresh medium, hADSCs was cultured under the same condition as described above until 168 hours.

[2] = system: SCX; assay: mRNA expression of tendon healing factors in hADSC: SCX; details: hADSC at 1×10^5 cell/ml, 2.5 μg/ml, 96 or 168 hours
Procedure: as §1

[3] = system: COL1 protein (collagen, COL1A1); assay: Protein expression of COL1A1 in hADSC; details: hADSC at 1×10^5 cell/ml, 2.5 μg/ml, 96 or 168 hours
Procedure: as §1

[4] = system: hADSCs; assay: Cell activity (MTT cell viability) of hADSC with butylidenephthalide; details: 24 and 48 hours
Procedure: hADSCs were seeded on a 96-well plate at a density of 3×10^3 cell/100 μl, and the 96-well plate was incubated at 37° C. in a humidified 5% CO2 atmosphere. After 16 hours, butylidenephthalide of various concentrations was added to the 96-well plate and then incubated at 37° C. in a 5% CO2 incubator. After 24 and 48 hours, the cell viability was determined. In cell viability assay, 100 μl of 10% MTT reagent was added to each well and then incubated in an incubator for 2 hours. 150 μl DMSO was added and mixed for 15 minutes. The absorbance (OD) of the aqueous solution was determined at 570 nm. According to FIG. 1, butylidenephthalide would not affect the cell activity if its concentration was blow 5 μg/ml. Therefore, 2.5 μg/ml of butylidenephthalide was selected to be used in the following experiments.

## CCCC=C1OC(=O)c2ccccc21 [butylidenephthalide, Butylidenephthalide]
[1]
  COL1A1 mRNA expression: increased, significantly; also recorded: significant increase
[2]
  SCX mRNA expression: increased, significantly; also recorded: significant increase
[3]
  COL1A1 protein expression: increased, significantly; also recorded: significant increase
[4]
  concentration that would not affect the cell activity (MTT): < 5000 ng/mL
